Measurements published in patent publication US20250368640A1 (BIOFRONT LTD, priority 2022, published 2025).
Where two headings read alike, the source gives them in different places.

How the values were obtained:
Aurora A [1] = target: T1, Aurora A (Homo sapiens (Human), UniProt O14965); experiment: Aurora A enzyme inhibition assay; assay type: biochemical
Protocol: Aurora A Enzyme Inhibition Assay
(§1) The compound was dissolved in 100% DMSO at the concentration of 10 mM. The Aurora A protein was purchased from Carna (05-101). 10 μL per well of 2.5×Aurora A protein was added to assay plate containing the test compound, centrifuged at 1000 rpm for 1 minute, and then incubated at 25° C. for 10 minutes. Peptide 21 was purchased from GL Biochem (116370) and ATP was purchased from Promega (V9102). The two were added 15 μL per well mixture of 1.67× peptide 21 (final conc. is 3 μM) and ATP (final conc. is 14.58 μM), centrifuged at 1000 rpm for 1 minute, then incubated at 25° C. for 40 minutes. Then added 30 μL of stop buffer (100 mM HEPES pH7.5, 0.015% Brij-35, 0.2% Coating Reagent 3, 50 mM EDTA) to the assay plate and centrifuged at 1000 rpm for 1 minute. the product was determined. Based on the results, the IC50 value of the compound was calculated.

HPK1 [2] = target: T2, HPK1 (Homo sapiens (Human), UniProt Q92918); experiment: HPK1 enzyme inhibition assay (ADP-Glo); assay type: biochemical
Protocol: HPK1 Enzyme Inhibition Assay
The compound was dissolved in 100% DMSO at the concentration of 10 mM. The HPK1 protein was purchased from Signal Chem (M23-11G-10). 2.5 μL per well of 2×HPK1 protein was added to assay plate containing the test compound, centrifuged at 1500 rpm for 1 minute, and then incubated at 25° C. for 60 minutes. MBP protein was purchased from Signal Chem (M42-51N) and ATP was purchased from Promega (V9102). The two were added 2.5 μL per well mixture of 2×MBP (0.2 ug/ul) and ATP (20 μM), centrifuged at 1500 rpm for 1 minute, then incubated at 25° C. for 60 minutes. Then added 5 μL of ADP-Glo from Promega (V9102) to the assay plate and depleted the unconsumed ATP for 60 minutes. Then centrifuged at 1500 rpm for 1 minute and incubated at 25° C. for 60 minutes. Finally, 10 μL of the kinase assay reagent from Promega (V9102) was added to the assay plate to convert ADP to ATP, centrifuged at 1500 rpm for 1 minute, incubate at 25° C. for 40 minutes. After 40 minutes incubation, the […] was determined. Based on the results, the IC50 value of the compound was calculated.
Target sequence in this assay (Q92918 1-346 limits assumed): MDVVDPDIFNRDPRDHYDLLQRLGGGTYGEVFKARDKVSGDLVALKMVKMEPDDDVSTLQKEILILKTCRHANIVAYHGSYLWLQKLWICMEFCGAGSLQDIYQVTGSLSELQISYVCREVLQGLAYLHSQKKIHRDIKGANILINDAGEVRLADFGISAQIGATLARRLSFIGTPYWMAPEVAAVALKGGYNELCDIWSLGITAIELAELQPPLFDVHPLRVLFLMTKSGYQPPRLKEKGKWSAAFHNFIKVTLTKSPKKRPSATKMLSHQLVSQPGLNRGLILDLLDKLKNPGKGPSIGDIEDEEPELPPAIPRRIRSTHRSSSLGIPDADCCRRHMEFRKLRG

FLT3 = FLT3 degradation assay (western blot, MV-411 cells); assay type: cell-based, human
Protocol: (§2) MV-411 cells were cultured with medium (IMDM) prior to use. Cells were then incubated with a variety of concentrations of compound. After incubation, the cells were collected and lysed. The protein concentration was determined by BCA protein assay kit from Thermo (23227). The FLT3 protein level was determined by western blots, using anti-human FLT3 monoclonal antibody from CST (3462S). Proteins were loaded into each well of the pre-casting gels and subjected to electrophoretic separation by SDS-PAGE. The protein resolved by SDS-PAGE were transferred to PVDF, blocked by 5% skim milk, and probed with anti-human FLT3 antibody or -actin antibody from CST (3700S), using standard western blotting procedure.

HPK1 [3] = target: T2, HPK1; experiment: HPK1 degradation assay (western blot, human PBMC); assay type: cell-based; conditions: for Dmax: read-out: HPK1 Dmax
Protocol: Frozen human PBMC were purchased from Shanghai OribioTech and recovered with culture medium (RMPI1640) prior to use. The cells were then incubated with a variety of concentrations of compound. After incubation, the cells were collected and lysed. The protein concentration was determined by BCA protein assay kit from Thermo (23227). The HPK1 protein level was determined by western blots, using anti-human HPK1 polyclonal antibody from CST (4472S). Proteins were loaded into each well of the pre-casting gels and subjected to electrophoretic separation by SDS-PAGE. The protein resolved by SDS-PAGE were transferred to PVDF, blocked by 5% skim milk, and probed with anti-human HPK1 antibody or β-actin antibody from CST (3700S), using standard western blotting procedure.
Target sequence in this assay (Q92918 whole entry): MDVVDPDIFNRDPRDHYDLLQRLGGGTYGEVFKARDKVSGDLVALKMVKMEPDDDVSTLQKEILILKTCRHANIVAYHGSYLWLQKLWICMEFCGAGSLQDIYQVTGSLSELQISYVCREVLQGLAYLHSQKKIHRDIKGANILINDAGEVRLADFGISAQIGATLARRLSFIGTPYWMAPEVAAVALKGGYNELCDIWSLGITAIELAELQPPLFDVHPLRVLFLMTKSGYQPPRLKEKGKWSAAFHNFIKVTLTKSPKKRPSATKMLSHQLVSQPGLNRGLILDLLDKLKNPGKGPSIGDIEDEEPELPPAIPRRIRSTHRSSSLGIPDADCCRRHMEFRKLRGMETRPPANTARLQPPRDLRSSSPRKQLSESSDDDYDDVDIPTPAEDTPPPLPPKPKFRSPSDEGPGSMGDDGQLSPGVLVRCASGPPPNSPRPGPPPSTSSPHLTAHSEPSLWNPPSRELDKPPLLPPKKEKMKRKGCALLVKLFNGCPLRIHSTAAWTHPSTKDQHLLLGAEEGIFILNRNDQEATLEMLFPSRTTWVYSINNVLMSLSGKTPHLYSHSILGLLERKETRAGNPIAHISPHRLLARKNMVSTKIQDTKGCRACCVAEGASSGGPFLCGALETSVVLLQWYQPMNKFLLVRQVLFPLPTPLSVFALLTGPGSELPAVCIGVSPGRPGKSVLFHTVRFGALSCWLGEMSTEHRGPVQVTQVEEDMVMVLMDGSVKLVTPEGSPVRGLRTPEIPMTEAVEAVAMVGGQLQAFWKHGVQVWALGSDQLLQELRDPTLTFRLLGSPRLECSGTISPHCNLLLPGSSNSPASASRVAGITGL

Aurora A [4] = target: T1, Aurora A; experiment: Aurora A degradation assay (western blot); assay type: cell-based; conditions: for DC50: read-out: Aurora A DC50; for Dmax: read-out: Aurora A Dmax
Protocol: Aurora A Degradation Assay
as §2, with “IMR32” for “MV-411”, “cultured with medium (MEM), Huh7 cells were cultured with medium (DMEM) and HL-60 cells were culture” for “cultured”, “AURKA” for “FLT3”, “(14475S).” for “(3462S).”, “β-actin” for “-actin”, “(3700S) or COX IV antibody from CST (4850S),” for “(3700S),”

FLT3-ITD = FLT3-ITD (Homo sapiens, UniProt P36888, ITD); experiment: FLT3-ITD enzyme inhibition assay; assay type: biochemical
Chain of FLT3-ITD (P36888 whole entry, looked up, change not shown): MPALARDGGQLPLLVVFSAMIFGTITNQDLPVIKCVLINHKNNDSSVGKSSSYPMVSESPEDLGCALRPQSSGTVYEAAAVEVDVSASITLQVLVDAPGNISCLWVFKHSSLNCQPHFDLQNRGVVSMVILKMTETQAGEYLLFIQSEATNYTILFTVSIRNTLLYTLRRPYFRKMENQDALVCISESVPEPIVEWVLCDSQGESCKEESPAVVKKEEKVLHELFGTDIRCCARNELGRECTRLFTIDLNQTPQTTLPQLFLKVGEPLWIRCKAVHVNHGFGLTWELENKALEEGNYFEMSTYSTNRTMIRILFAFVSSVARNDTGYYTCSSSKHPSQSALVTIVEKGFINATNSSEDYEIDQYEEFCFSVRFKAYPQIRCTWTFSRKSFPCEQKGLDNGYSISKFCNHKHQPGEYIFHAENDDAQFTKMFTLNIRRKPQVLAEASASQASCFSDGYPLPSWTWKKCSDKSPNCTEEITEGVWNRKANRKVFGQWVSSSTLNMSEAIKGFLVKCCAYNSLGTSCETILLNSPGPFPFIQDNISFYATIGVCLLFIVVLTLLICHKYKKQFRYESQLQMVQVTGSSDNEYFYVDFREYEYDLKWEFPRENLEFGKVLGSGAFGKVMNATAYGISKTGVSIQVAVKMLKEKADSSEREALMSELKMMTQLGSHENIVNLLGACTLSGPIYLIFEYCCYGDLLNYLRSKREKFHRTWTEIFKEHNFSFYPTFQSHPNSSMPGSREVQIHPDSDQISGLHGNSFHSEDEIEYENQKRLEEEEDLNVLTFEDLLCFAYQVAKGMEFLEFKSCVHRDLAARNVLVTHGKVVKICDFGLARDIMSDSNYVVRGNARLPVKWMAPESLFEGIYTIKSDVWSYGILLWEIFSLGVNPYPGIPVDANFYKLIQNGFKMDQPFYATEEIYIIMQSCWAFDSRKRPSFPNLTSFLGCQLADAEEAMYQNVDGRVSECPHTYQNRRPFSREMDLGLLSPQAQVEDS
Protocol: FLT3-ITD Enzyme Inhibition Assay
as §1, with “FLT3-ITD” for “Aurora A”, “Invitrogen (PV6191).” for “Carna (05-101).”, “2.5×FLT3-ITD” for “2.5×Aurora A”, “2” for “21”, “(112394)” for “(116370)”, “97.2” for “14.58”

MEK 1/2 = MEK 1/2 degradation assay (western blot); assay type: cell-based, human
Protocol: MEK 1/2 Degradation Assay
as §2, with “(IMDM) and IMR32 cells were cultured with medium (MEM)” for “(IMDM)”, “anti-human MEK 1/2 polyclonal” for “anti-human FLT3 monoclonal”, “CST (9122S).” for “CST (3462S).”, “anti-human MEK1/2” for “anti-human FLT3”, “or β-actin” for “or -actin”, “CST (3700S) and COX IV antibody from CST (4850S),” for “CST (3700S),”

[5] = read-out: FLT3 DC50, protein degradation
[6] = protein degradation, human PBMC, read-out: HPK1 DC50
[7] = protein degradation, IMR32, Huh7 or HL-60 cells
[8] = protein degradation, MV-411 or IMR32 cells
[9] = read-out: MEK 1/2 DC50; protein degradation, MV-411 or IMR32 cells
[10] = enzyme inhibition, read-out: FLT3-ITD IC50
[11] = protein degradation, class symbol, read-out: FLT3 DC50 (nM)/Dmax (%)
[12] = protein degradation, MV-411 or IMR32 cells; read-out: MEK 1/2 DC50
[13] = protein degradation, human PBMC

T1 sequence (O14965 whole entry): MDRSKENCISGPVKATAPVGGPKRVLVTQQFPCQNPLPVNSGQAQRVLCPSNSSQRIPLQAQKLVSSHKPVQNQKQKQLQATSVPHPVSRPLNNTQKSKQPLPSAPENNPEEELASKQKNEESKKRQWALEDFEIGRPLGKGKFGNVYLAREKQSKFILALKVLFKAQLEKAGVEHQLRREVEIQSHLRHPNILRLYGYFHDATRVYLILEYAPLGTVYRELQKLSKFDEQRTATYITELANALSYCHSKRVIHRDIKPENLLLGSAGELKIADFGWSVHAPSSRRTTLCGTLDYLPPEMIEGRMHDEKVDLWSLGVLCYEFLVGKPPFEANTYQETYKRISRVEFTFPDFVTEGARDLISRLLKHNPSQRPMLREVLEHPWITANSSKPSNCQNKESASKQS

Compound | IC50 (FLT3-ITD; [10]) [nM] | DC50 (FLT3; [11]) [nM] | DC50 (HPK1 [3]; protein degradation, human PBMC, class symbol, read-out: HPK1 DC50 (nM)/Dmax (%)) [nM] | Dmax (Aurora A [4]; [7]) [%] | DC50 (MEK 1/2; [12]) [nM] | Dmax (HPK1 [3]; [13]) [%] | DC50 (FLT3; protein degradation, read-out: FLT3 DC50) [nM] | IC50 (Aurora A [1]) [nM] | IC50 (HPK1 [2]) [nM] | FLT3 Dmax (FLT3; protein degradation) [%] | DC50 (FLT3; [5]) [nM] | DC50 (HPK1 [3]; [6]) [nM] | Dmax (HPK1 [3]) [%] | DC50 (Aurora A [4]; [7]) [nM] | Dmax (Aurora A [4]) [%] | IC50 (FLT3-ITD) [nM] | MEK 1/2 Dmax (MEK 1/2; [8]) [%] | DC50 (MEK 1/2; [9]) [nM] | DC50 (MEK 1/2; read-out: MEK 1/2 DC50 (nM)/Dmax (%); protein degradation, MV-411 or IMR32 cells; class symbol) [nM]
CCc1c[nH]c2ncc(-c3cccc(N4CCCN(CC5CCN(c6ccc7c(c6)C(=O)N(C6CCC(=O)NC6=O)C7=O)CC5)C4=O)c3)c(Cl)c12 (centres unmarked) [Example 8, 5-(4-((3-(3-(4-chloro-3-ethyl-1H-pyrrolo [2,3-b]pyridin-5-yl)phenyl)-2-oxotetrahydropyrimidin-1 (2H)-yl)methyl)piperidin-1-yl)-2-(2,6-dioxopiperidin-3-yl) isoindoline-1,3-dione] | – | – | – | – | – | – | – | 110 | 15.7 | 95 | 8 | 85 | 95 | < 20 | 95 | 5.7 | 91 | 82 | –
O=C1CCC(N2C(=O)c3cc(F)c(N4CCC(CCN5CCCN(c6cccc(-c7cnc8[nH]cc(C9CC9)c8c7Cl)c6)C5=O)CC4)cc3C2=O)C(=O)N1 (centres unmarked) [Example 9, 5-(4-(2-(3-(3-(4-chloro-3-cyclopropyl-1H-pyrrolo [2,3-b]pyridin-5-yl)phenyl)-2-oxotetrahydropyrimidin-1 (2H)-yl)ethyl)piperidin-1-yl)-2-(2,6-dioxopiperidin-3-yl)-6-fluoroisoindoline-1,3-dione] | 36.5 | – | – | – | – | – | – | 131 | 62.9 | 60 | 100 | 294 | 50 | > 1000 | 50 | – | – | – | > 10000
CCc1c[nH]c2ncc(-c3cccc(N4CCCN(CC5CCN(c6ccc(NC7CCC(=O)NC7=O)cc6F)CC5)C4=O)c3)c(Cl)c12 (centres unmarked) [Example 15, 3-((4-(4-((3-(3-(4-chloro-3-ethyl-1H-pyrrolo [2,3-b]pyridin-5-yl)phenyl)-2-oxotetrahydropyrimidin-1 (2H)-yl)methyl)piperidin-1-yl)-3-fluorophenyl)amino) piperidine-2,6-dione] | – | – | – | – | – | – | – | 19.9 | 4.6 | 34 | 0.02 | 6 | 80 | 9.6 | 82 | 8.8 | 38 | 1 | –
CCc1c[nH]c2ncc(-c3cccc(N4CCCN(CCC5CCN(c6ccc(NC7CCC(=O)NC7=O)cc6F)CC5)C4=O)c3)c(Cl)c12 (centres unmarked) [Example 16, 3-((4-(4-(2-(3-(3-(4-chloro-3-ethyl-1H-pyrrolo [2,3-b]pyridin-5-yl)phenyl)-2-oxotetrahydropyrimidin-1 (2H)-yl)ethyl)piperidin-1-yl)-3-fluorophenyl)amino) piperidine-2,6-dione] | – | – | – | – | – | – | – | 40.8 | 5.5 | 17 | 115 | 100 | 64 | 4.6 | 75 | 12.3 | 75 | 4.6 | –

The next lines start with results.

IC50 (FLT3-ITD; [10]) [nM] | DC50 (FLT3; [11]) [nM] | DC50 (HPK1 [3]; protein degradation, human PBMC, class symbol, read-out: HPK1 DC50 (nM)/Dmax (%)) [nM] | Dmax (Aurora A [4]; [7]) [%] | DC50 (MEK 1/2; [12]) [nM] | Dmax (HPK1 [3]; [13]) [%] | DC50 (FLT3; protein degradation, read-out: FLT3 DC50) [nM] | Compound | IC50 (Aurora A [1]) [nM] | IC50 (HPK1 [2]) [nM] | FLT3 Dmax (FLT3; protein degradation) [%] | DC50 (FLT3; [5]) [nM] | DC50 (HPK1 [3]; [6]) [nM] | Dmax (HPK1 [3]) [%] | DC50 (Aurora A [4]; [7]) [nM] | Dmax (Aurora A [4]) [%] | IC50 (FLT3-ITD) [nM] | MEK 1/2 Dmax (MEK 1/2; [8]) [%] | DC50 (MEK 1/2; [9]) [nM] | DC50 (MEK 1/2; read-out: MEK 1/2 DC50 (nM)/Dmax (%); protein degradation, MV-411 or IMR32 cells; class symbol) [nM]
20.8 | > 10000 | > 10000 | 50 | 49 | – | – | O=C1CCC(N2Cc3ccc(N4CCC(CN5CCCN(c6cccc(-c7cnc8[nH]cc(C9CC9)c8c7Cl)c6)C5=O)CC4)cc3C2=O)C(=O)N1 (centres unmarked) [Example 11] | 21.2 | 13.6 | – | – | – | – | 9 | – | – | 30 | – | –
23.8 | > 10000 | – | 70 | < 1 | 50 | – | O=C1CCC(N2Cc3ccc(N4CCC(CN5CCCN(c6cccc(-c7cnc8[nH]cc(CC(F)F)c8c7Cl)c6)C5=O)CC4)cc3C2=O)C(=O)N1 (centres unmarked) [Example 13] | 14.3 | 12.5 | – | – | 11 | – | 3 | – | – | 30 | – | –
17.4 | – | – | 50 | 1 | 91 | 8.7 | CCc1c[nH]c2ncc(-c3cccc(N4CCCN(CCN5CCN(c6ccc(C7CCC(=O)NC7=O)cc6)CC5)C4=O)c3)c(Cl)c12 (centres unmarked) [Example 17] | 16.6 | 2.9 | 80 | – | 2.3 | – | 1 | – | – | 47 | – | –
5.4 | > 10000 | – | 74 | 1 | 52 | – | CCc1c[nH]c2ncc(-c3cccc(N4CCCN(CCN5CCN(c6ccc(NC7CCC(=O)NC7=O)cc6F)CC5)C4=O)c3)c(Cl)c12 (centres unmarked) [Example 18] | 10.6 | 2.5 | – | – | 1 | – | 1.1 | – | – | 74 | – | –
